In article PMC11604427 (Frontiers in Pharmacology, 2024):

Assays:
[1] = target: T1, Human recombinant HDAC2 enzyme (Homo sapiens, UniProt Q92769); test: HDAC2 fluorescence enzyme inhibition assay (Boc-Lys(acetyl)-AMC); format: biochemical; settings: fluorescence signal-based method
T1 construct: purchased Abcam
Description: Firstly, a 96-well plate was loaded with a blend comprising 10 μL of HDAC2 enzyme solution and 50 μL of the test compounds at assorted concentrations, followed by incubation at a temperature of 37°C for a duration of 5 min. Subsequently, 10 μL of the fluorescent substrate Boc-Lys (acetyl)-AMC was added and continued for 30 min. Finally, 100 μL of developer containing trypsin and TSA was injected into each well and incubated for 20 min.

[2] = target: T2, Human recombinant PKMYT1 enzyme (Homo sapiens, UniProt Q99640); test: ADP-GLO enzyme inhibition assay; format: biochemical; settings: ADP-GLO method
T2 construct: purchased Abcam
T2 sequence (Q99640 1-499): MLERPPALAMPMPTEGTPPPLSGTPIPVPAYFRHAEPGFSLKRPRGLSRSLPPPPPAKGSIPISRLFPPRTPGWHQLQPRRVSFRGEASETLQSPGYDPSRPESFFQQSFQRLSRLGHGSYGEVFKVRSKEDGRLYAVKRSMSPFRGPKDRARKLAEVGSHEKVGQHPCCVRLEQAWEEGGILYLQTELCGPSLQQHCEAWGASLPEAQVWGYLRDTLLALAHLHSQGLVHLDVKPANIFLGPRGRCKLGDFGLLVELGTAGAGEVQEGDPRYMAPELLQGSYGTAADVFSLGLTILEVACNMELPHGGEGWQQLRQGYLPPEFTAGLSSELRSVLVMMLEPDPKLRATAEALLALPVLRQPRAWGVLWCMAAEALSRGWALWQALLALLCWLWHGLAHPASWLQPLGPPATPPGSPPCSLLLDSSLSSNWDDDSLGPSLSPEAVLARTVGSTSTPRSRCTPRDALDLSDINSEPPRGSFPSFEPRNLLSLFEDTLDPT
Description: The ADP-GLO™ kinase assay kit, purchased from Promega Corporation (Madison, WI, United States), included the ADP-GLO reagent, the kinase assay reagent, and ultra-pure ATP and ADP. PKMYT1 enzyme was dissolved in 5 μL of freshly prepared enzyme assay buffer containing 70 mM Hepes, 3 mM MgCl2, 3 mM MnCl2, 50 μg/mL PEG20000, 3 μM sodium orthovanadate, 1.2 mM dithiothreitol, and then injected into 384-well plates. […] The enzymatic reaction was initiated by adding 5 μL of ATP, followed by a 60-min incubation at 30°C. Subsequently, 15 μL of ADP-GLO reagent was added, and the incubation was continued for an additional 40 min at room temperature. Then, 30 μL of kinase detection reagent was introduced, and the samples were incubated for a final 30 min. Luminescence measurements were taken using an Envision plate reader (PerkinElmer). The IC50 value of each tested compound was calculated by GraphPad Prism software.

T1 sequence (Q92769 whole entry): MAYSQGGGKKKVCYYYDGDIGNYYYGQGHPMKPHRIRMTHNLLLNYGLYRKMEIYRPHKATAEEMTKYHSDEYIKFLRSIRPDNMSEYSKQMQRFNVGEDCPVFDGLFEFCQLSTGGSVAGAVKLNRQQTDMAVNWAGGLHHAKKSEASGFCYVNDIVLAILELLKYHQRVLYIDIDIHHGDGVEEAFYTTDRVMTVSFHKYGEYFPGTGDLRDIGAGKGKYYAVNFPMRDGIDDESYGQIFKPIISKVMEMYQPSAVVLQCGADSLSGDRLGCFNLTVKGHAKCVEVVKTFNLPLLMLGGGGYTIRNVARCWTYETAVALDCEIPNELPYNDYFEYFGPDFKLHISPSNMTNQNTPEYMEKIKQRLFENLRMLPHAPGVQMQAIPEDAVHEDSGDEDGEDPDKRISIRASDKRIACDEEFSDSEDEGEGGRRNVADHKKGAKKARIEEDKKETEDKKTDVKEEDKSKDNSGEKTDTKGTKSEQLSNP

IC50 [1] [nM]	IC50 [2] [nM]	PKMYT1 (IC50, nM) [2]	SMILES
7.31 ± 1.12	13.6 ± 1.94	–	CCCCc1nc2c(cc1CCCCCC(=O)NO)c(C(N)=O)c(N)n2-c1c(C)ccc(O)c1C [PKHD-4]
–	–	no inhibition	O=C(CCCCCCC(=O)Nc1ccccc1)NO [SAHA, Vorinostat, reference compound]
4.14 ± 0.52	7.78 ± 0.91	–	CCc1nc2c(cc1CCCCCC(=O)NO)c(C(N)=O)c(N)n2-c1c(C)ccc(O)c1C [PKHD-2]
5.47 ± 0.66	9.26 ± 1.07	–	C=CCc1nc2c(cc1CCCCCC(=O)NO)c(C(N)=O)c(N)n2-c1c(C)ccc(O)c1C [PKHD-3]
8.64 ± 1.35	11.1 ± 1.86	–	Cc1ccc(O)c(C)c1-n1c(N)c(C(N)=O)c2cc(CCCCCC(=O)NO)c(CCCO)nc21 [PKHD-1]
